Measured values from patent US20200166517A1, “Screening Method for Identification of Neuroprotective Compounds” (Temple University-Of The Commonwealth System of Higher …, priority 2017, published 2020).
Entries after “also recorded” stand apart in the source; their conditions may differ.

Experiments:
Format in all cases: cell-based
[1] = tested on: JNK3 activation by wtDLK-GFP; experiment: JNK3 activation by wtDLK-GFP in cotransfected HEK293T cells, detected by phosphoJNK antibody; conditions: HEK293T cells expressing myc-JNK3 plus wtDLK-GFP; vs EtOH vehicle
Description: FIG. 2A: HEK293T cells expressing myc-JNK3 plus wtDLK-GFP were treated with the palmitoylation inhibitor 2-Bromopalmitate (2-Br) or EtOH (vehicle). […] FIG. 2B: HEK293T cells were transfected with myc-JNK3 plus either wtDLK-GFP or a DLK palmitoyl site mutant (DLK-CS-GFP). Only wtDLK-GFP activates JNK3, as detected by phosphoJNK antibody.

DLK-GFP [2] = target: T1, DLK-GFP (Homo sapiens, UniProt Q12852); experiment: DLK-GFP puncta / membrane localization in transfected HEK293T cells (high-content imaging, ImageXpress)
T1 sequence (Q12852 1-892 isoform Q12852-2): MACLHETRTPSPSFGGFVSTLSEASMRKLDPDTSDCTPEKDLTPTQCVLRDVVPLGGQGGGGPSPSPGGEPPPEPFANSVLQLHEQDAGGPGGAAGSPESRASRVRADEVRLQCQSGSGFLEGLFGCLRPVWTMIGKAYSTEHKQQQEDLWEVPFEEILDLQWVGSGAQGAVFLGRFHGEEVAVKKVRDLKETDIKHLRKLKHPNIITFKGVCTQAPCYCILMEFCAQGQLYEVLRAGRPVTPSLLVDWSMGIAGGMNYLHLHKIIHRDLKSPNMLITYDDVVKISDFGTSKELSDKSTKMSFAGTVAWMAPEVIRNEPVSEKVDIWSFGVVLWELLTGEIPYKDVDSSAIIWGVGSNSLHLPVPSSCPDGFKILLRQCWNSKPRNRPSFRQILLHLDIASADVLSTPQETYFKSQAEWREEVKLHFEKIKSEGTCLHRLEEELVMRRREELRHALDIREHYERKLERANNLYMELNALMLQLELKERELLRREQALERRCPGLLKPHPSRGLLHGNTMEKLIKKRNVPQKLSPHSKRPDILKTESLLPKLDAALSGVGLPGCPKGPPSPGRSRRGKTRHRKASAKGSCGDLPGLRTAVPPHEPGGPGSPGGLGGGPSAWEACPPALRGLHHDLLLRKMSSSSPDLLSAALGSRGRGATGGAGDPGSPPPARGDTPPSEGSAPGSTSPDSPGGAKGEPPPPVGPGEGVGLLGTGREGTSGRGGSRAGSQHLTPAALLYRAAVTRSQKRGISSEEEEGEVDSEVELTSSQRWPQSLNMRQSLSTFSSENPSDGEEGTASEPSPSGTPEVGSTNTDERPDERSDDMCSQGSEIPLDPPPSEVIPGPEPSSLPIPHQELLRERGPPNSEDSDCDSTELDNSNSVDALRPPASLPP
Description: FIG. 3A: HEK293T cells were transfected with wtDLK-GFP or DLK-CS-GFP and treated 4 h later with 2-Br or vehicle. Top: Live images of GFP fluorescence, acquired 8 h post-transfection. […] FIG. 3B: A subset of cells from FIG. 3A were fixed and immunostained with anti-GFP antibody. Images of GFP fluorescence (n=5 per condition) were analyzed by ImageXpress software. Palmitoylation-dependent differences in number of DLK-GFP puncta are readily detectable.
FIG. 6A depicts HEK293T cells transiently expressing DLK-GFP, fixed and immunostained with antibodies to detect GFP and the Golgi marker GM130. FIG. 6B depicts HEK293T cells, transfected as in FIG. 6A to express either wild type DLK-GFP (DLK-GFP) or a DLK palmitoylation site mutant (C127S-DLK-GFP). […] FIG. 6C depicts results from an experiment in which HEK293T cells were seeded into 12 wells of a 96-well plate and transfected with DLK-GFP and then treated with 2BP or vehicle (6 wells per condition). Cells were fixed in PFA and imaged using an ImageXpress High Content Imaging system to detect GFP signal. Assay quality was determined by calculating the z-prime (z′) for 6 determinations for each of the indicated conditions (z′=S/R, S=[(Mean of Vehicle treated−3×SD)−(Mean of 2BP−3×SD)], R=Vehicle Mean−2BP mean).
(§1) FIG. 7A depicts HEK293T cells co-transfected with DLK-GFP plus mCherry-NLS×3 and then treated with 2BP or vehicle were fixed to detect GFP, mCherry and the nuclear marker DAPI. […] FIG. 7B depicts design of the high-throughput screen for compounds that inhibit DLK-GFP puncta formation. FIG. 7C depicts compounds from the Prestwick Chemical Library™, which were spotted onto 96 well plates at 10 mM per compound in DMSO and diluted in DMEM prior to adding to transfected cells in duplicate at a final concentration of 10 micromolar (similar to the flow chart in FIG. 7B). 16 h later, cells were fixed in 4% PFA and stained with DAPI. High-content imaging was performed using an ImageXPress Image Analysis ‘TransFluor’ and Multi-wavelength scoring (MWS) modules. Data are plotted as total number of puncta (TransFluor Module) per total NLS (MWS module) for each compound. Drugs that decreased the nuclear NLS and/or DAPI markers below 3 times the […] were excluded due to likely toxicity or non-specific effects (plotted in grey). ‘Hits’ were drugs characterised as decreasing all ‘puncta’ readouts by more than 3 times the SD and included in 2 replicates.
(§2) FIG. 8A depicts an experiment in which HEK293T cells transiently transfected with DLK-GFP and mCherry-NLS and subsequently incubated with the indicated concentrations of Ketoconazole or 20 μM 2BP 2 hours post-transfection for 16-18 h. Cells were fixed and stained with DAPI. Scale bar represents 50 μm. FIG. 8B depicts quantified DLK puncta/NLS and nuclear counts (DAPI) from cells transfected as in FIG. 8A and treated with the indicated concentrations of ketoconazole. FIG. 8C depicts an experiment in which transiently transfected HEK293T cells were prepared as in FIG. 8A and palmitoylation (HAM+) was detected using the ABE assay. HAM- sample was generated from an equal fraction of all conditions combined.
In transfected HEK 293T cells, GFP-tagged wild type DLK (wtDLK-GFP) clearly localizes to intracellular membranes (FIG. 3, top). These membranes are distinct from the vesicles reported in neurons (likely due to different trafficking of DLK in non-neuronal cells) and instead overlap with Golgi markers, likely because many mammalian palmitoyl acyltransferases (PATs) localize to the Golgi (Levy, 2011; Ohno, 2006). […] In identically thresholded images, wtDLK-GFP puncta could be readily observed, that were absent in the 2-Br-treated and DLK-CS-GFP images (FIG. 3A, bottom). It was thus reasoned that this palmitoylation-dependent change in DLK localization should be quantifiable using high-content imaging software. […] High-content imaging detection is thus well suited to identify novel pharmacological inhibitors of DLK palmitoylation.

DLK-GFP [3] = target: T1, DLK-GFP; experiment: Acyl-Biotin Exchange (ABE) palmitoylation assay, DLK-GFP in HEK293T cells
Description: FIG. 4 depicts an orthogonal assay to confirm mechanism of action (MOA) of HTS Hits. HEK293T cells were transfected with wt-DLK-GFP or DLK-CS-GFP and palmitoyl-proteins were isolated by Acyl-Biotin Exchange (ABE). Palmitoyl-DLK is robustly detected in ABE fractions but no ABE signal is seen from cells treated with 2-Br, or if DLK's palmitoyl-site is mutated. DLK expressed similarly in all conditions. (Holland, 2016)
as §2
HEK293T cells were transiently transfected with FIG. 9A) DLK-GFP, FIG. 9B) GAP43-Myc, FIG. 9C) and untagged PSD95 and incubated with 20 μM 2BP, or with 2.5 μM or 5 μM ketoconazole 2 h post-transfection for 16-18 h. Palmitoylation was detected using the ABE assay (left) and quantified from n=4 determinations per condition (right). HAM- includes an equal fraction of all conditions combined. […]
(§3) If changes in DLK localization observed by high-content imaging are indeed due to altered DLK palmitoylation then this should also be reflected in biochemical assays of DLK palmitoylation levels. Palmitoylation of numerous proteins, including DLK, has been previously monitored using a non-radioactive palmitoylation assay, Acyl-Biotin Exchange (ABE) (Holland, 2016; Thomas, 2012). […] WtDLK-GFP was robustly detected in ABE fractions but was absent from controls in which the essential ABE reagent hydroxylamine (NH2OH) was omitted (FIG. 4). […]

HEK293T cells = experiment: mCherry-NLS×3 expression and DAPI nuclear signal (toxicity / non-specific effect readout of the screen); conditions: HEK293T co-transfected with DLK-GFP plus mCherry-NLS×3
Description: as §1

GAP43-Myc = experiment: Acyl-Biotin Exchange (ABE) palmitoylation assay, GAP43-Myc in HEK293T cells; conditions: 2.5 μM or 5 μM, 2 h post-transfection for 16-18 h, n=4; ANOVA not significant
Description: (§4) HEK293T cells were transiently transfected with FIG. 9A) DLK-GFP, FIG. 9B) GAP43-Myc, FIG. 9C) and untagged PSD95 and incubated with 20 μM 2BP, or with 2.5 μM or 5 μM ketoconazole 2 h post-transfection for 16-18 h. Palmitoylation was detected using the ABE assay (left) and quantified from n=4 determinations per condition (right). HAM- includes an equal fraction of all conditions combined. […] One-way ANOVA, Kruskal-Wallis post-hoc analysis; FIG. 9A) ANOVA p=0.0214, h=7.692, FIG. 9B) ANOVA not significant, FIG. 9C) ANOVA p=0.0158, h=8.290. Error bars represent SEM.
as §3, with “2012). ABE uses an exchange of thioester-linked acyl modifications (i.e. palmitoylation), for biotin, with the resultant biotinylated proteins being affinity-purified from cell lysates using neutravidin-conjugated beads.” for “2012).”

PSD95 = experiment: Acyl-Biotin Exchange (ABE) palmitoylation assay, untagged PSD95 in HEK293T cells; conditions: 2.5 μM or 5 μM, 2 h post-transfection for 16-18 h, n=4; ANOVA p=0.0158
Description: as §4
as §3, with “2012). ABE uses an exchange of thioester-linked acyl modifications (i.e. palmitoylation), for biotin, with the resultant biotinylated proteins being affinity-purified from cell lysates using neutravidin-conjugated beads.” for “2012).”

phospho-cJun = experiment: DLK-mediated phospho-cJun activation after NGF withdrawal in DRG neurons (Western blot); conditions: DRG neurons DIV 7, 2.5 μM overnight pretreatment, 2.5 h NGF withdrawal; Bonferroni post-test p<0.01
Description: FIG. 10A depicts an experiment in which dorsal Root Ganglion (DRG) neurons were pretreated at 7 Days in vitro (DIV 7) with 2.5 μM Ketoconazole overnight or 20 μM 2BP for 2 h prior to a 2.5 h NGF withdrawal in presence of the indicated compound. Cells were lysed in SDS-PAGE loading buffer and levels of endogenous DLK, phospho-cJun and tubulin were detected by Western blot.
FIG. 10B depicts quantification of phospho-cJun normalised to -NGF vehicle treated cells. Two-way ANOVA indicates significant effects of interaction (p=0.0071), NGF (p=0.0026) and Ketoconazole (p=0.0001). The effect of Ketoconazole in DRGs undergoing NGF withdrawal was also significant as determined by the Bonferroni post-test (p<0.01). Error bars represent SEM.

SMILES	JNK3 activation (phosphorylation) by wtDLK-GFP [1]	DLK-GFP puncta (DLK-GFP [2]; HEK293T co-transfected with DLK-GFP plus mCherry-NLS×3)	Golgi-associated clusters of DLK-GFP (DLK-GFP [2]; HEK293T transiently expressing DLK-GFP)	DLK localization quantified by ImageXpress 'TransFluor' module (number of DLK-GFP puncta) (DLK-GFP [2]; HEK293T, fixed, anti-GFP immunostained, n=5 images per condition)	membrane-localized wtDLK-GFP puncta / DLK-GFP membrane association (DLK-GFP [2]; HEK293T, treated 4 h post-transfection, imaged 8 h post-transfection, thresholded images)	palmitoyl-DLK signal in ABE fractions (DLK-GFP [3]; HEK293T transfected with wtDLK-GFP)	mCherry-NLS×3 expression and DAPI signal (HEK293T cells)	inhibition of DLK-GFP puncta formation (puncta per total NLS), rank in Prestwick Chemical Library screen (DLK-GFP [2]; 10 micromolar final, duplicate, 16 h, 96-well)	DLK-GFP puncta (DLK puncta/NLS), dose response (DLK-GFP [2]; HEK293T, DLK-GFP and mCherry-NLS, compound added 2 hours post-transfection for 16-18 h)	palmitoylation of DLK (ABE) (DLK-GFP [3]; 2.5 μM or 5 μM, 2 h post-transfection for 16-18 h, n=4, ANOVA p=0.0214)	DLK palmitoylation (ABE, HAM+), dose response (DLK-GFP [3]; HEK293T, compound 2 hours post-transfection for 16-18 h)	palmitoylation of GAP-43 (ABE) (GAP43-Myc)	palmitoylation of PSD-95 (ABE) (PSD95)	phospho-cJun normalised to -NGF vehicle treated cells (phospho-cJun)
CCCCCCCCCCCCCCC(Br)C(=O)O (centres unmarked) [2-Br, 2-Bromopalmitate]	blocks JNK3 activation; also recorded: prevented DLK-dependent phosphorylation of JNK3	reduces DLK-GFP puncta	diffuses the Golgi-associated clusters of DLK-GFP	dramatically alters DLK localization	completely disrupted DLK-GFP membrane association; also recorded: essentially absent	no ABE signal	without affecting mCherry-NLS×3 expression or DAPI signal							
CC(=O)N1CCN(c2ccc(OCC3COC(Cn4ccnc4)(c4ccc(Cl)cc4Cl)O3)cc2)CC1 (centres unmarked) [Ketoconazole]								most potent compound to inhibit DLK-GFP puncta formation	decreases DLK-GFP puncta	significantly reduces palmitoylation of DLK	inhibits DLK palmitoylation in a dose dependent manner	does not affect palmitoylation of GAP-43	significantly reduces palmitoylation of DLK and PSD-95	significantly decreases DLK-mediated phospho-cJun activation; also recorded: significant
